Reference: PMC4013547 (ACS chemical biology, 2013)

The compounds below were run against Ldtfm (E. faecium L,D-transpeptidase, catalytic domain) (Enterococcus faecium, UniProt Q3Y185) (assay: NMR chemical shift perturbation). Settings: covalent; active-site cysteine Cys442; Pocket 1.
Format: binding

Row | Structure (SMILES) | NMR chemical shift perturbation
1 | C[C@@H](O)[C@H]1C(=O)N2C(C(=O)O)=C(S[C@@H]3CN[C@H](CNS(N)(=O)=O)C3)[C@H](C)[C@H]12 [doripenem] | NMR chemical shift perturbations observed with imipenem, doripenem and meropenem
2 | C[C@@H](O)[C@H]1C(=O)N2C(C(=O)O)=C(SCCN=CN)C[C@H]12 [imipenem] | NMR chemical shift perturbations observed with imipenem, doripenem and meropenem
3 | C[C@@H](O)[C@H]1C(=O)N2C(C(=O)O)=C(S[C@@H]3CN[C@H](C(=O)N(C)C)C3)[C@H](C)[C@H]12 [meropenem] | NMR chemical shift perturbations observed with imipenem, doripenem and meropenem
